Values joined by “and” are separate entries in the source; they are usually repeats but may differ in a detail not shown here. Equal entries are not always repeated. Toxic doses and inconclusive results are not listed.
System: BDF1 mice, P288 leukemia ip, survival T/C
Experiment: NCI In Vivo Anticancer Drug Screen. Data for tumor model P288 Lymphocytic Leukemia (intraperitoneal) in B6D2F1 (BDF1) mice
Details: endpoint: survival time, mean or median, higher = longer survival
Method: The antitumor activity of compounds was measured in mice bearing transplantable tumors. Survival or tumor size were measured and the results are expressed as the measurement made in the treated group (T) divided by the measurement made in the vehicle treated control group (C). The tumor model used in this assay is P288 Lymphocytic Leukemia (intraperitoneal) in B6D2F1 (BDF1) mice

CCN(CC)c1ccc2cc3ccc(=[N+](CC)CC)cc-3oc2c1
T/C (dose: 0.08 mg/kg/injection, schedule: Q01DX Z (ip), vehicle: carboxymethylcellulose (CMC)): 110 % of control
T/C (dose: 0.16 mg/kg/injection, schedule: Q01DX Z (ip), vehicle: carboxymethylcellulose (CMC)): 90 % of control
T/C (dose: 0.31 mg/kg/injection, schedule: Q01DX Z (ip), vehicle: carboxymethylcellulose (CMC)): 108 % of control
T/C (dose: 0.32 mg/kg/injection, schedule: Q01DX Z (ip), vehicle: carboxymethylcellulose (CMC)): 96 % of control
T/C (dose: 0.63 mg/kg/injection, schedule: Q01DX Z (ip), vehicle: carboxymethylcellulose (CMC)): 100 % of control
T/C (dose: 1.25 mg/kg/injection, schedule: Q01DX Z (ip), vehicle: carboxymethylcellulose (CMC)): 106 % of control
T/C (dose: 2.5 mg/kg/injection, schedule: Q01DX Z (ip), vehicle: carboxymethylcellulose (CMC)): 102 % of control
T/C (dose: 5.0 mg/kg/injection, schedule: Q01DX Z (ip), vehicle: carboxymethylcellulose (CMC)): 115 % of control and 117 % of control

O=c1[nH]c(=O)n(C2CC(O)C(CO)O2)cc1Br (stereo not given)
T/C (dose: 6.5 mg/kg/injection, schedule: Q01DX Z (ip), vehicle: carboxymethylcellulose (CMC)): 96 % of control
T/C (dose: 8.0 mg/kg/injection, schedule: Q01DX Z (ip), vehicle: carboxymethylcellulose (CMC)): 95 % of control
T/C (dose: 13.0 mg/kg/injection, schedule: Q01DX Z (ip), vehicle: carboxymethylcellulose (CMC)): 107 % of control
T/C (dose: 26.0 mg/kg/injection, schedule: Q01DX Z (ip), vehicle: carboxymethylcellulose (CMC)): 102 % of control
T/C (dose: 31.0 mg/kg/injection, schedule: Q01DX Z (ip), vehicle: carboxymethylcellulose (CMC)): 90 % of control

COc1cc(-c2ccc(Nc3ccccc3C(=O)O)c(OC)c2)ccc1Nc1ccccc1C(=O)O
T/C (dose: 25.0 mg/kg/injection, schedule: Q01DX010 (ip), vehicle: saline): 116 % of control
T/C (dose: 100.0 mg/kg/injection, schedule: Q01DX010 (ip), vehicle: saline): 155 % of control
T/C (dose: 200.0 mg/kg/injection, schedule: Q01DX010 (ip), vehicle: saline): 161 % of control

C[C@@H]1C[C@H]2CC[C@H](O2)[C@H](C)C(=O)O[C@@H](C)C[C@@H]2CC[C@@H](O2)[C@@H](C)C(=O)O[C@H](C)C[C@H]2CC[C@H](O2)[C@H](C)C(=O)O[C@@H](C)C[C@@H]2CC[C@@H](O2)[C@@H](C)C(=O)O1
T/C (dose: 25.0 mg/kg/injection, schedule: Q01DX Z (ip), vehicle: carboxymethylcellulose (CMC)): 98 % of control
T/C (dose: 50.0 mg/kg/injection, schedule: Q01DX Z (ip), vehicle: carboxymethylcellulose (CMC)): 96 % of control
T/C (dose: 100.0 mg/kg/injection, schedule: Q01DX Z (ip), vehicle: carboxymethylcellulose (CMC)): 120 % of control
T/C (dose: 200.0 mg/kg/injection, schedule: Q01DX Z (ip), vehicle: carboxymethylcellulose (CMC)): 111 % of control
